Here are results for two compounds from patent publication US8962058B2, “High-potency sweetener composition with antioxidant and compositions sweetened therewith” (The Coca-Cola Company, priority 2005, dated 2015).

For assay [1], the system named is panel of experts in the sensory evaluation of foods and beverages. Kind of assay: Sensory evaluation of sweetness linger by expert panel. It counts as in vivo. The arrangement: key: 0=no sweetness linger; 1=very slight sweetness linger; 2=slight sweetness linger; 3=moderate sweetness linger; 4=moderately high sweetness linger; 5=high sweetness linger. The settings on record: for Sweetness Linger rating as defined for the protocol's controls: scale anchors: sucrose, 500 ppm REBA control sample; for Sweetness linger rating: scale 0-5. The method, then: In a particular embodiment, a panel of assessors is used to measure the reduction of sweetness linger. Briefly described, a panel of assessors (generally 8 to 12 individuals) is trained to evaluate sweetness perception and measure sweetness at several time points from when the sample is initially taken into the mouth until 3 minutes after it has been expectorated. […] A decrease in score for a time point measured after the sample has cleared the mouth indicates there has been a reduction in sweetness perception.
The panel of assessors may be trained using procedures well known to those of ordinary skill in the art. In a particular embodiment, the panel of assessors may be trained using the Spectrum™ Descriptive Analysis Method (Meilgaard et al, Sensory Evaluation Techniques, 3rd edition, Chapter 11). Desirably, the focus of training should be the recognition of and the measure of the basic tastes; specifically, sweet. In order to ensure accuracy and reproducibility of results, each assessor should repeat the measure of the reduction of sweetness linger about three to about five times per sample, taking at least a five minute break between each repetition and/or sample and rinsing well with water to clear the mouth.
Generally, the method of measuring sweetness comprises taking a 10 mL sample into the mouth, holding the sample in the mouth for 5 seconds and gently swirling the sample in the mouth, rating the sweetness intensity perceived at 5 seconds, expectorating the sample (without swallowing following expectorating the sample), rinsing with one mouthful of water (e.g., vigorously moving water in mouth as if with mouth wash) and expectorating the rinse water, rating the sweetness intensity perceived immediately upon expectorating the rinse water, waiting 45 seconds and, while waiting those 45 seconds, identifying the time of maximum perceived sweetness intensity and rating the sweetness intensity at that time (moving the mouth normally and swallowing as needed), rating the sweetness intensity after another 10 seconds, rating the sweetness intensity after another 60 seconds (cumulative 120 seconds after rinse), and rating the sweetness intensity after still another 60 seconds (cumulative 180 seconds after rinse). Between samples take a 5 minute break, rinsing well with water to clear the mouth.
Sensory evaluation of the samples prepared in Example Set G was carried out under the following protocol, similar to that described hereinabove. In this test protocol, none of the samples were swallowed. […] Immediately upon sensing maximal sweetness, the sample was expectorated, the mouth was rinsed with water and the rate of sweetness decay (“Sweetness Linger”) was measured, where attention was focused on the sweetness 3-4 min after the water rinse. […]

The nature of assay [2]: Sweetness level as sucrose equivalent.

As to `OC[C@H]1O[C@@](CO)(O[C@H]2O[C@H](CO)[C@@H](O)[C@H](O)[C@H]2O)[C@@H](O)[C@@H]1O` [sugar, sucrose], the “Sweetness Linger rating as defined for the protocol's controls” value in assay [1] was 0.
In the case of rebaudioside A, the Sweetness linger rating in assay [1] (Example Set G: citric acid/potassium citrate composition equivalent to diet lemon-lime beverage (citrate buffer), sweetness 3-4 min after water rinse) worked out at 5; in assay [1] (Example Set H: carbon-treated water, phosphoric acid (75%) to pH 2.4-2.5), 5. The “Sweetness Linger rating as defined for the protocol's controls” value in assay [1] stood at 5. The sucrose equivalence in assay [2] (180 ppm rebaudioside A in 1:1 diluted commercial beverage) is 5 % sucrose; in assay [2] (400 ppm REBA in citric acid/potassium citrate composition) it was 8 g sucrose.
